From ChEMBL document CHEMBL6092149, “Discovery of 1(2H)-phthalazinone and 1(2H)-isoquinolinone derivatives as potent hematopoietic progenitor kinase 1 (HPK1) inhibitors” (Eur J Med Chem, 2024)
Calls of active or inactive are those of the source. The calls are words filed in the database; no cut-off is given here.

What was measured:
[1] = biological target: T1, Mitogen-activated protein kinase kinase kinase kinase 1 (Homo sapiens, UniProt Q92918); experiment: Inhibition of HPK1 in human Jurkat cells assessed as reduction in SLP76 phosphorylation pretreated for 1 hr followed by anti-CD3 addition and measured after 15 min by ELISA method; format: cell-based
Target sequence in this assay (Q92918 whole entry): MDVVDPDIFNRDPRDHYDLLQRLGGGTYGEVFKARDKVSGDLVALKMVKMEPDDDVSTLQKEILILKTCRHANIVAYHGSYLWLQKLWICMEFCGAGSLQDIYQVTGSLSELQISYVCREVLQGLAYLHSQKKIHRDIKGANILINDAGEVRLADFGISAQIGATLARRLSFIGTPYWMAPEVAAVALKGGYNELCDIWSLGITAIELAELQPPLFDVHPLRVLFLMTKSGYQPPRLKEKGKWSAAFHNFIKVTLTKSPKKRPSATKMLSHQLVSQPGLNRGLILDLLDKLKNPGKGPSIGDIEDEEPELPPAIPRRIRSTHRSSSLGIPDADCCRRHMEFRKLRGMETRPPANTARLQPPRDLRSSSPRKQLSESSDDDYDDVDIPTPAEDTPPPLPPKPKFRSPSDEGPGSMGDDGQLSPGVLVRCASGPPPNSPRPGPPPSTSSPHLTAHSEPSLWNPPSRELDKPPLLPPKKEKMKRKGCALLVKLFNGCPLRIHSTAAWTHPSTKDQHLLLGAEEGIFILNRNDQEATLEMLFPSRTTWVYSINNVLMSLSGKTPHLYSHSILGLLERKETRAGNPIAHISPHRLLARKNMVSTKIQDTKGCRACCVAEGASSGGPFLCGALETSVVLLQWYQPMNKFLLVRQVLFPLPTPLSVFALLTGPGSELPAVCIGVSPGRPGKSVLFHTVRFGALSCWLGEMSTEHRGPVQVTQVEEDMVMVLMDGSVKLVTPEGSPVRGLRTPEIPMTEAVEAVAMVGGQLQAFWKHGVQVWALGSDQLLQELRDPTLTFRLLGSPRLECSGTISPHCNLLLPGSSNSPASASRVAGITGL

[2] = Oral bioavailability in in overnight fasted mouse at 10 mg/kg; format: ADME, organism-based; details: in vivo
[3] = Plasma clearance in overnight fasted mouse at 1 mg/kg, iv; format: ADME, organism-based
[4] = Half life in overnight fasted mouse at 1 mg/kg, iv; format: ADME, organism-based; details: in vivo
[5] = Cmax in overnight fasted mouse at 10 mg/kg, po; format: ADME, organism-based; details: in vivo
[6] = biological target: T1, Mitogen-activated protein kinase kinase kinase kinase 1; experiment: Inhibition of N-terminal DYKDDDDK recombinant human HPK1 (1 to 346 residues) expressed in Sf21 insect cells preincubated for 10 min followed by fluorescein PKC and ATP addition and measured after 90 min by Envision2104 Multilabel Reader analysis
Target sequence in this assay (Q92918 whole entry): as above

[7] = AUC (0 to 24 hrs) in overnight fasted mouse at 10 mg/kg, po; format: ADME, organism-based; details: in vivo
[8] = biological target: T1, Mitogen-activated protein kinase kinase kinase kinase 1; experiment: Inhibition of HPK1 in human T cells assessed as increase in IL-2 secretion measured after 24 hrs by ELISA method; format: cell-based, T-cell; details: for Activity: T-cell
[9] = biological target: T1, Mitogen-activated protein kinase kinase kinase kinase 1; experiment: Inhibition of HPK1 in human T cells assessed as increase in IL-2 secretion at 333 nM incubated for 2 hrs and measured after 24 hrs by ELISA method; format: cell-based; details: T-cell
Target sequence in this assay (Q92918 whole entry, looked up): as the sequence (Q92918 whole entry) above

[10] = Plasma Clearance in overnight fasted rat at 1 mg/kg, iv; format: ADME, organism-based
[11] = Cmax in overnight fasted rat at 10 mg/kg, po; format: ADME, organism-based; details: in vivo
[12] = AUC (0 to 24 hrs) in overnight fasted rat at 10 mg/kg, po; format: ADME, organism-based; details: in vivo
[13] = biological target: Voltage-gated inwardly rectifying potassium channel KCNH2 (Homo sapiens, UniProt Q12809); experiment: Inhibition of HERG expressed in HEK293 cells at -80mV holding potential incubated for 24 to 48 hrs by whole-cell patch clamp method
Chain of Voltage-gated inwardly rectifying potassium channel KCNH2 (Q12809 whole entry): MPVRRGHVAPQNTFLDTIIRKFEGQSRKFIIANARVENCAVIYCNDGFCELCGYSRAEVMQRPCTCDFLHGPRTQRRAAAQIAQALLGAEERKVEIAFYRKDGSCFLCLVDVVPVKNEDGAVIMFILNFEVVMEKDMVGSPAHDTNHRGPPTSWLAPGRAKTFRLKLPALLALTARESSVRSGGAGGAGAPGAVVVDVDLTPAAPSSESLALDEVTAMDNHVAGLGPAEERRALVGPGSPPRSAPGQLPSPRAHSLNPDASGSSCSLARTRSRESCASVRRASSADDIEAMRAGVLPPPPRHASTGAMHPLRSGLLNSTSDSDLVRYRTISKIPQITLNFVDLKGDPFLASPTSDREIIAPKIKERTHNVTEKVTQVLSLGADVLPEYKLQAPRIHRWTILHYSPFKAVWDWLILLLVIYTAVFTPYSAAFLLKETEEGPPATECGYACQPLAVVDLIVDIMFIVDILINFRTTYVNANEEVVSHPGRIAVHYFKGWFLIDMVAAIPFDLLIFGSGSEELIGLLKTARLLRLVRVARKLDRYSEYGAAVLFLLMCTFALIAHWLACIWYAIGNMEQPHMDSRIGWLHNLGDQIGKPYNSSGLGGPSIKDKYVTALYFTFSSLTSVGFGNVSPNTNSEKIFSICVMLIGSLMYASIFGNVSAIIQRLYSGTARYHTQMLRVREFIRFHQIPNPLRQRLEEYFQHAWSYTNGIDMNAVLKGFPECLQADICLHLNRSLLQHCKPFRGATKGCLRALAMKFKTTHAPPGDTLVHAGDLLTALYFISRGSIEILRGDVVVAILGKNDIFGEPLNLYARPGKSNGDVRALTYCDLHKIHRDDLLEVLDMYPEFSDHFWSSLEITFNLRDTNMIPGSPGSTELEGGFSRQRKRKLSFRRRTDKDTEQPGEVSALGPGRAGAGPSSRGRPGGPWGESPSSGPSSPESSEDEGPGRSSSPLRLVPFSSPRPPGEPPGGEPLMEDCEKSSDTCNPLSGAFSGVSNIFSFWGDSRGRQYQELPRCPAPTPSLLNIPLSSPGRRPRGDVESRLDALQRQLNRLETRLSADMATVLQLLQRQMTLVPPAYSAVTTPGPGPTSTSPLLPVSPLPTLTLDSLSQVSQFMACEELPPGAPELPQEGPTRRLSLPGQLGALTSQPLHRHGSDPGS

[14] = Half life in overnight fasted rat at 1 mg/kg, iv; format: ADME, organism-based; details: in vivo

SMILES | EC50 [1] [nM] | bioavailability [2] [%] | clearance [3] [mL/min/kg] | half-life [4] [min] | Cmax [5] [ng/mL] | IC50 [6] [nM] | AUC(0-t) [7] [ng·h/mL] | EC50 [8] [nM] | Activity [8] | Activity [9] | clearance [10] [mL/min/kg] | Cmax [11] [ng/mL] | AUC(0-t) [12] [ng·h/mL] | IC50 [13] [nM] | half-life [14] [min]
O=c1[nH]ncc2c(-c3cnc4cc(F)ccn34)ccc(Nc3ccc(C4CCOCC4)c(CN4CC[C@H](F)C4)n3)c12 | 14 | 31 | 104 | 30 | 484 | 5.4 | 506 | 187 | Dose-dependent-effect | – | – | – | – | – | –
O=c1[nH]ncc2c(-c3cnc4cc(F)ccn34)ccc(Nc3ccc(C4CCOCC4)c(CN4CC[C@@H](F)C4)n3)c12 | 55 | – | – | – | – | 34 | – | 373 | Dose-dependent-effect | – | – | – | – | – | –
CN(C)Cc1nc(Nc2ccc(-c3cnc4cc(F)ccn34)c3cc[nH]c(=O)c23)ccc1C1CCOCC1 | 76 | 86 | 159 | 24 | 308 | 20 | 892 | 220 | Dose-dependent-effect | – | – | – | – | – | –
COC1CCN(Cc2nc(Nc3ccc(-c4cnc5cc(F)ccn45)c4cn[nH]c(=O)c34)ccc2C2CCOCC2)C1 (stereo not drawn) | 32 | – | – | – | – | 24.4 | – | 254 | Dose-dependent-effect | – | – | – | – | – | –
CN(C)Cc1nc(Nc2ncc(-c3cnc4cc(F)ccn34)c3cn[nH]c(=O)c23)ccc1C1CCOCC1 | – | – | – | – | – | 539 | – | – | – | – | – | – | – | – | –
CN(C)Cc1nc(Nc2ccc(-c3cnc4cc(F)ccn34)c3c(F)c[nH]c(=O)c23)ccc1C1CCOCC1 | – | – | – | – | – | > 1000 | – | – | – | – | – | – | – | – | –
CN(C)Cc1nc(Nc2ccc(-c3cnc4cc(F)ccn34)c3c2C(=O)NC3)ccc1C1CCOCC1 | – | – | 269 | 30 | 282 | – | 1350 | – | – | Active | 230 | 74 | 312 | 2850 | 84
